These results are taken from publication PMC4139006 (Pediatric blood & cancer, 2013).

Like-named read-outs stand apart in the source and are kept apart here.

One data set can be described thus: clinical. The conditions noted are these: human, in vivo, po.
For data set [1] the following is noted: human, in vivo.
The next data set can be described thus: Phase I dose escalation. The format is in vivo, children. The conditions noted are these: oral, days 1–5 every 28 days, VOR about one hour before TEM.
For data set [2] the following is noted: given continuously as a single daily dose; pediatric; cited from earlier work.
For data set [3] the following is noted: systemically administered; cited from earlier work.
For a further data set, the system named is medulloblastoma/PNETs. The conditions noted are these: of 25 evaluable patients with medulloblastoma/PNETs; cited from earlier work.
The test system of the next data set is low-grade glioma. The following applies: single-agent temozolomide, cited from earlier work.

Take `O=C(O)CCC(=O)Nc1ccccc1` [4-anilino-4-oxobutanoic acid, 4-anilino-4-oxobutanoic acid]: the total exposure AUC(0-inf) in “clinical” (230 mg/m2, AUC0-∞) worked out at 6900 ng·h/mL; in “clinical” (300 mg/m2, AUC0-∞), 7490 ng·h/mL. Further, the Cmax in “clinical” (230 mg/m2, Cmax) was 490 ng/mL; in “clinical” (300 mg/m2, Cmax) it was 750 ng/mL; in data set [1] (po, 300 mg/m2) it was 814 (588 – 832) ng/ml. The half-life in “clinical” (230 mg/m2, Half-life) was 624 min; in the data set “clinical” (300 mg/m2, Half-life) it was 551 min; in data set [1] (po, 300 mg/m2) it was 9.19 (6.49 – 11.6) hrs. Further, the Tmax in “clinical” (230 mg/m2, Tmax) was 3 h; in the data set “clinical” (300 mg/m2, Tmax), 4 h; in data set [1] (po, 300 mg/m2), 2.00 (0.88 – 6.00) hrs. For the same compound, the “AUC0-∞” value in data set [1] (po, 300 mg/m2) is given as 9590 (7150 – 16600) ng/ml*hr.
With `O=C(CCCCCCC(=O)Nc1ccccc1)NO` [VOR, suberoylanilide hydroxamic acid], the “pediatric MTD and recommended phase II dosing for the combination of VOR and TEM” value in the data set “Phase I dose escalation” was 300 mg/m^2/day. The half-life in the data set “clinical” (230 mg/m2, Half-life) was 157 min; in “clinical” (300 mg/m2, Half-life), 157 min; in data set [1] (po, 300 mg/m2), 2.80 (2.23 – 5.90) hrs. In the data set “clinical” (300 mg/m2, AUC0-∞), the AUC(0-inf) amounted to 1790 ng·h/mL. Also, the Cmax in “clinical” (300 mg/m2, Cmax) was 422 ng/mL; in data set [1] (po, 230 mg/m2) it was 390 (221 – 655) ng/ml; in data set [1] (po, 300 mg/m2), 578 (200 – 821) ng/ml. Besides, the “MTD of single-agent oral VOR” value in data set [2] is 230 mg/m^2/day. The “blood brain barrier crossing” value in data set [3] was “crosses the blood brain barrier”. Also, in data set [1], the “time to maximum concentration” value is 2 h.
Take `Cn1nnc2c(C(N)=O)ncn2c1=O` [TEM, Temozolomide]: the “pediatric MTD and recommended phase II dosing for the combination of VOR and TEM” value in the data set “Phase I dose escalation” came out at 150 mg/m^2/day. The “complete or partial responses, patients” value in the data set on medulloblastoma/PNETs is 4. In the data set with low-grade glioma (adults), the “patients having prolonged stable disease” value is recorded as 30% and the response rates is 50–60%. The “median progression-free survival (PFS)” value in the data set with low-grade glioma was 22–28 months.

As usually defined, the AUC(0-inf) is total exposure, with the tail of the curve extrapolated. The low end stands for low exposure, the high end for high exposure.
